Key:
Assay type in all cases: cell-based
[1] = system: BT-549; test: NCI 60-cell line growth inhibition assay: BT-549; details: Homo sapiens, Breast, read-out: GI50
[2] = system: HS 578T; test: NCI 60-cell line growth inhibition assay: HS 578T; details: Homo sapiens; Breast, HS 578T; read-out: GI50
[3] = system: MCF7; test: NCI 60-cell line growth inhibition assay: MCF7; details: Homo sapiens, Breast, read-out: GI50
[4] = system: MDA-MB-231/ATCC; test: NCI 60-cell line growth inhibition assay: MDA-MB-231/ATCC; details: Homo sapiens; Breast, MDA-MB-231/ATCC; read-out: GI50
[5] = system: MDA-MB-435; test: NCI 60-cell line growth inhibition assay: MDA-MB-435; details: Homo sapiens, Breast, read-out: GI50
[6] = system: NCI/ADR-RES; details: Homo sapiens, Breast, read-out: GI50
[7] = system: SF-295; test: NCI 60-cell line growth inhibition assay: SF-295; details: Homo sapiens, CNS, read-out: GI50
[8] = system: SF-539; test: NCI 60-cell line growth inhibition assay: SF-539; details: Homo sapiens; CNS, SF-539; read-out: GI50
[9] = system: SNB-19; test: NCI 60-cell line growth inhibition assay: SNB-19; details: Homo sapiens, CNS, read-out: GI50
[10] = system: SNB-75; test: NCI 60-cell line growth inhibition assay: SNB-75; details: Homo sapiens, CNS, read-out: GI50
[11] = system: U251; test: NCI 60-cell line growth inhibition assay: U251; details: Homo sapiens, U-251; CNS, U251; read-out: GI50
[12] = system: COLO 205; test: NCI 60-cell line growth inhibition assay: COLO 205; details: Homo sapiens, Colon, read-out: GI50
[13] = system: HCC-2998; test: NCI 60-cell line growth inhibition assay: HCC-2998; details: Homo sapiens; Colon, HCC-2998; read-out: GI50
[14] = system: HCT-116; test: NCI 60-cell line growth inhibition assay: HCT-116; details: Homo sapiens, Colon, read-out: GI50
[15] = system: HCT-15; test: NCI 60-cell line growth inhibition assay: HCT-15; details: Homo sapiens, Colon, read-out: GI50
[16] = system: HT29; test: NCI 60-cell line growth inhibition assay: HT29; details: Homo sapiens, HT-29; Colon, HT29; read-out: GI50
[17] = system: KM12; test: NCI 60-cell line growth inhibition assay: KM12; details: Homo sapiens, Colon, read-out: GI50
[18] = system: SW-620; test: NCI 60-cell line growth inhibition assay: SW-620; details: Homo sapiens, Colon, read-out: GI50
[19] = system: K-562; test: NCI 60-cell line growth inhibition assay: K-562; details: Homo sapiens, K562; Leukemia, K-562; read-out: GI50
[20] = system: MOLT-4; test: NCI 60-cell line growth inhibition assay: MOLT-4; details: Homo sapiens, Leukemia, read-out: GI50
[21] = system: LOX IMVI; test: NCI 60-cell line growth inhibition assay: LOX IMVI; details: Homo sapiens, Melanoma, read-out: GI50
[22] = system: M14; test: NCI 60-cell line growth inhibition assay: M14; details: Homo sapiens, Melanoma, read-out: GI50
[23] = system: MALME-3M; test: NCI 60-cell line growth inhibition assay: MALME-3M; details: Homo sapiens; Melanoma, MALME-3M; read-out: GI50
[24] = system: SK-MEL-2; test: NCI 60-cell line growth inhibition assay: SK-MEL-2; details: Homo sapiens, Melanoma, read-out: GI50
[25] = system: SK-MEL-5; test: NCI 60-cell line growth inhibition assay: SK-MEL-5; details: Homo sapiens, Melanoma, read-out: GI50
[26] = system: UACC-257; test: NCI 60-cell line growth inhibition assay: UACC-257; details: Homo sapiens, Melanoma, read-out: GI50
[27] = system: UACC-62; test: NCI 60-cell line growth inhibition assay: UACC-62; details: Homo sapiens, Melanoma, read-out: GI50
[28] = system: A549/ATCC; test: NCI 60-cell line growth inhibition assay: A549/ATCC; details: Homo sapiens; Non-Small Cell Lung, A549/ATCC; read-out: GI50
[29] = system: EKVX; test: NCI 60-cell line growth inhibition assay: EKVX; details: Homo sapiens, Non-Small Cell Lung, read-out: GI50
[30] = system: HOP-62; test: NCI 60-cell line growth inhibition assay: HOP-62; details: Homo sapiens, Non-Small Cell Lung, read-out: GI50
[31] = system: HOP-92; test: NCI 60-cell line growth inhibition assay: HOP-92; details: Homo sapiens, Non-Small Cell Lung, read-out: GI50
[32] = system: NCI-H23; details: Homo sapiens, Non-Small Cell Lung, read-out: GI50
[33] = system: NCI-H460; details: Homo sapiens, Non-Small Cell Lung, read-out: GI50
[34] = system: NCI-H522; details: Homo sapiens, Non-Small Cell Lung, read-out: GI50
[35] = system: OVCAR-3; test: NCI 60-cell line growth inhibition assay: OVCAR-3; details: Homo sapiens, Ovarian, read-out: GI50
[36] = system: OVCAR-4; test: NCI 60-cell line growth inhibition assay: OVCAR-4; details: Homo sapiens, Ovarian, read-out: GI50
[37] = system: OVCAR-5; test: NCI 60-cell line growth inhibition assay: OVCAR-5; details: Homo sapiens, Ovarian, read-out: GI50
[38] = system: OVCAR-8; test: NCI 60-cell line growth inhibition assay: OVCAR-8; details: Homo sapiens, Ovarian, read-out: GI50
[39] = system: SK-OV-3; test: NCI 60-cell line growth inhibition assay: SK-OV-3; details: Homo sapiens, Ovarian, read-out: GI50
[40] = system: DU-145; test: NCI 60-cell line growth inhibition assay: DU-145; details: Homo sapiens, Prostate, read-out: GI50
[41] = system: PC-3; test: NCI 60-cell line growth inhibition assay: PC-3; details: Homo sapiens, Prostate, read-out: GI50
[42] = system: 786-0; test: NCI 60-cell line growth inhibition assay: 786-0; details: Homo sapiens, Renal, read-out: GI50
[43] = system: A498; test: NCI 60-cell line growth inhibition assay: A498; details: Homo sapiens, Renal
Excerpt: The following data in Table 4 summarize the growth inhibition properties of several compounds of the present invention against 60-human transformed cell lines.

[44] = system: ACHN; test: NCI 60-cell line growth inhibition assay: ACHN; details: Homo sapiens, Renal, read-out: GI50
[45] = system: CAKI-1; test: NCI 60-cell line growth inhibition assay: CAKI-1; details: Homo sapiens, Renal, read-out: GI50
[46] = system: RXF 393; test: NCI 60-cell line growth inhibition assay: RXF 393; details: Homo sapiens, Renal, read-out: GI50
[47] = system: SN12C; test: NCI 60-cell line growth inhibition assay: SN12C; details: Homo sapiens, Renal, read-out: GI50
[48] = system: TK-10; test: NCI 60-cell line growth inhibition assay: TK-10; details: Homo sapiens, Renal, read-out: GI50
[49] = system: UO-31; test: NCI 60-cell line growth inhibition assay: UO-31; details: Homo sapiens, Renal, read-out: GI50

## C#Cc1ccc2[nH]c3c(c2c1)CCN1C[C@H](C[C@@](O)(CC)C1)C[C@]3(C(=O)OC)c1cc2c(cc1OC)N(C)[C@H]1[C@@](O)(C(=O)OC)[C@H](OC(C)=O)[C@]3(CC)C=CCN4CC[C@]21[C@@H]43 [Example 17, 12′-ethynylvinblastine]
[1]
  GI50: < 10 nM
[2]
  GI50: < 10 nM
[3]
  GI50: < 10 nM
[4]
  GI50: < 10 nM
[5]
  GI50: < 10 nM
[6]
  GI50: 2090 nM
[7]
  GI50: < 10 nM
[8]
  GI50: < 10 nM
[9]
  GI50: < 10 nM
[10]
  GI50: < 10 nM
[11]
  GI50: < 10 nM
[12]
  GI50: < 10 nM
[13]
  GI50: < 10 nM
[14]
  GI50: < 10 nM
[15]
  GI50: 44 nM
[16]
  GI50: < 10 nM
[17]
  GI50: < 10 nM
[18]
  GI50: < 10 nM
[19]
  GI50: 53.1 nM
[20]
  GI50: < 10 nM
[21]
  GI50: < 10 nM
[22]
  GI50: < 10 nM
[23]
  GI50: < 10 nM
[24]
  GI50: < 10 nM
[25]
  GI50: < 10 nM
[26]
  GI50: 22.4 µM
[27]
  GI50: < 10 nM
[28]
  GI50: 16.9 nM
[29]
  GI50: < 10 nM
[30]
  GI50: < 10 nM
[31]
  GI50: 160 nM
[32]
  GI50: < 10 nM
[33]
  GI50: < 10 nM
[34]
  GI50: < 10 nM
[35]
  GI50: < 10 nM
[36]
  GI50: 15.3 nM
[37]
  GI50: < 10 nM
[38]
  GI50: < 10 nM
[39]
  GI50: < 10 nM
[40]
  GI50: < 10 nM
[41]
  GI50: < 10 nM
[42]
  GI50: < 10 nM
[43]
  GI50: < 10 nM
[44]
  GI50: < 10 nM
[45]
  GI50: 73.4 nM
[46]
  GI50: < 10 nM
[47]
  GI50: < 10 nM
[48]
  GI50: < 10 nM
[49]
  GI50: 98.6 nM

Source: patent US7745619B2, “Vinca derivatives” (priority 2003, dated 2010)
